Measured values reported in ChEMBL document CHEMBL1123047, “Quantitative evaluation of the beta 2-adrenoceptor affinity of phenoxypropanolamines and phenylethanolamines” (J Med Chem, 1985).

Tests used:
[1] = (§1) Partition coefficient (logP); settings: octanol/water
[2] = target: Beta-2 adrenergic receptor (Bos taurus, UniProt Q28044); settings: read-out: Kd app
Description: (§2) Affinity for cow beta-2 adrenergic receptor by measuring displacement (-)-[3H]dihydroalprenolol (DHA)

[3] = target: Beta-2 adrenergic receptor (Bos taurus) (UniProt Q28044)
Description: as §2

[4] = as §1; assay type: physicochemical; settings: octanol/water

Beta-2 adrenergic receptor, sequence (Q28044 whole entry): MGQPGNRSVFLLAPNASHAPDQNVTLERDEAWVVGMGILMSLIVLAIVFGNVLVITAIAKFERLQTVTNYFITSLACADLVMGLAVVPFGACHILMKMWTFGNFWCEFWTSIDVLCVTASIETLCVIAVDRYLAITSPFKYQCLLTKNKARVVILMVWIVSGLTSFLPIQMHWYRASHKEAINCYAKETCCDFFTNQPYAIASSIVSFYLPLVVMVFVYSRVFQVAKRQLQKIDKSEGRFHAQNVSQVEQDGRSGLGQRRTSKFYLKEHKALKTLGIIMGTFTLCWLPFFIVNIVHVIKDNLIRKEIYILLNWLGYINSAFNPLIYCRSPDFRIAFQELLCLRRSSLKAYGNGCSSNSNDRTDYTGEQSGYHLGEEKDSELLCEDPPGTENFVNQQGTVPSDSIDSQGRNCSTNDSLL
Beta-2 adrenergic receptor (Bos taurus), sequence (Q28044 whole entry, looked up): as the sequence (Q28044 whole entry) above

| Compound | logP [1] | Kd [2] | -Log KD [3] | logP [4] |
| --- | --- | --- | --- | --- |
| Oc1cccc(O)c1 [RESORCINOL] | 0.8 | – | – | – |
| Nc1ccccc1O [QUESTIOMYCIN B] | 0.52 | – | – | – |
| CC(C)NCC(O)COc1ccccc1 (centres undefined) | – | 53.7 nM | 7.57 | – |
| CCCc1ccccc1 | 3.57 | – | – | – |
| CC(C)NCC(O)c1ccc(O)cc1 (centres undefined) [DETERENOL] | – | 4270 nM | – | – |
| CC(C)(C)NCC(O)c1ccc(O)c(C(N)=O)c1 (centres undefined) | – | 470 nM | – | – |
| Cc1cccc(OCC(O)CNC(C)C)c1 (centres undefined) [TOLIPROLOL] | – | 43.6 nM | 7.66 | – |
| Cc1cc(C)cc(OCC(O)CNC(C)C)c1 (centres undefined) | – | 10.2 nM | 8.29 | – |
| CC(C)(C)NCC(O)c1ccc(O)c(CO)c1 (centres undefined) | – | – | 6.58 | – |
| CC(C)(C)NCC(O)c1cc(Cl)c(O)c(Cl)c1 (centres undefined) | – | 1950 nM | 7.41 | – |
| CC(C)NCC(O)c1ccc([N+](=O)[O-])cc1 (centres undefined) [NIFENALOL] | – | 1320 nM | – | – |
| CC(C)NCC(O)c1cccc(O)c1 (centres undefined) [METATEROL] | – | 910 nM | 6.34 | – |
| CC(C)(C)NCC(O)c1cc(O)cc(O)c1 (centres undefined) | – | – | 5.73 | – |
| CC(C)(C)NCC(O)c1ccc(O)c(N)c1 (centres undefined) | – | 2040 nM | 5.99 | – |
| Cc1ccccc1OCC(O)CNC(C)C (centres undefined) | – | 10.2 nM | 8.29 | – |
| CC(C)(C)NCC(O)c1ccc(O)c(O)c1 (centres undefined) [COLTEROL] | – | 600 nM | 6.55 | – |
| CNc1cc(C(O)CNC(C)(C)C)ccc1O (centres undefined) | – | 520 nM | – | – |

| Compound | logP [1] | Kd [2] | -Log KD [3] | logP [4] |
| --- | --- | --- | --- | --- |
| CC(C)NCC(O)c1ccc(NS(C)(=O)=O)cc1 (centres undefined) | – | – | 6.57 | – |
| OCc1ccccc1O [SALICYL ALCOHOL] | 0.73 | – | – | – |
| NC(=O)c1ccccc1O [SALICYLAMIDE] | – | – | – | 1.28 |
| CC(C)NCC(O)c1cc(Cl)c(N)c(Cl)c1 (centres undefined) | – | 58 nM | 7.54 | – |
| C#CCOc1ccccc1OCC(O)CNC(C)C (centres undefined) | – | 2.14 nM | 8.97 | – |
| CC(C)NCC(O)c1cc(O)cc(O)c1 (centres undefined) [METAPROTERENOL] | – | 9120 nM | – | – |
| CCC(C)c1cccc(OCC(O)CNC(C)C)c1 (centres undefined) | – | 17.8 nM | 8.05 | – |
| CC(C)NCC(O)c1ccc(O)c(N)c1 (centres undefined) | – | 5130 nM | 5.59 | – |
| CC(C)NCC(O)COc1ccccc1C1CC1 (centres undefined) [PROCINOLOL] | – | 0.39 nM | 9.41 | – |
| CC(C)NCC(O)c1ccc(O)c(CO)c1 (centres undefined) | – | 3160 nM | 5.8 | – |
| CC(C)(C)NCC(O)c1ccc(O)cc1 (centres undefined) | – | 1260 nM | 6.2 | – |
| CC(C)NCC(O)COc1ccccc1CO (centres undefined) | – | 50.1 nM | 7.6 | – |
| CCCc1ccccc1OCC(O)CNC(C)C (centres undefined) | – | 0.63 nM | 9.2 | – |
| CC(C)NC[C@H](O)COc1ccc(O)cc1 [PRENALTEROL] | – | 1070 nM | 6.27 | – |
| CC(C)(C)NCC(O)c1ccccc1Cl (centres undefined) [TULOBUTEROL] | – | 130 nM | – | – |
| CC(C)NCC(O)COc1ccccc1C#N (centres undefined) | – | 21.9 nM | 7.96 | – |
| CC(C)NCC(O)c1ccc2ccccc2c1 (centres undefined) [PRONETALOL] | – | 160 nM | 7.1 | – |
